Assay results: patent publication US20220227707A1, “COMPOUNDS AND COMPOSITIONS FOR TREATING CONDITIONS ASSOCIATED WITH NLRP ACTIVITY” (Novartis AG, priority 2019, published 2022)

Each compound was assayed on IL-1β production in PMA-differentiated THP-1 cells (assay: IL-1β production in PMA-differentiated THP-1 cells stimulated with gramicidin (hTHP-1 assay)). Conditions: Homo sapiens, THP-1, Average IC50, hTHP-1 assay containing 2% fetal bovine serum; Table 10, class symbols.
Type: cell-based, human
Description: Procedure 1: IL-1β Production in PMA-Differentiated THP-1 Cells Stimulated with Gramicidin
THP-1 cells were purchased from the American Type Culture Collection and sub-cultured according to instructions from the supplier. Cells were cultured in complete RPMI 1640 (containing 10% heat inactivated FBS, penicillin (100 units/ml) and streptomycin (100 μg/ml)), and maintained in log phase prior to experimental setup. Prior to the experiment, compounds were dissolved in dimethyl sulfoxide (DMSO) to generate a 30 mM stock. The compound stock was first pre-diluted in DMSO to 3, 0.34, 0.042 and 0.0083 mM intermediate concentrations and subsequently spotted using Echo550 liquid handler into an empty 384-well assay plate to achieve desired final concentration (e.g. 100, 33, 11, 3.7, 1.2, 0.41, 0.14, 0.046, 0.015, 0.0051, 0.0017 μM). DMSO was backfilled in the plate to achieve a final DMSO assay concentration of 0.37%. The plate was then sealed and stored at room temperature until required.
THP-1 cells were treated with PMA (Phorbol 12-myristate 13-acetate) (20 ng/ml) for 16-18 hours. On the day of the experiment the media was removed and adherent cells were detached with trypsin for 5 minutes. Cells were then harvested, washed with complete RPMI 1640, spun down, and resuspended in RPMI 1640 (containing 2% heat inactivated FBS, penicillin (100 units/ml) and streptomycin (100 μg/ml). The cells were plated in the 384-well assay plate containing the spotted compounds at a density of 50,000 cells/well (final assay volume 50 μl). Cells were incubated with compounds for 1 hour and then stimulated with gramicidin (5 μM) (Enzo) for 2 hours. Plates were then centrifuged at 340 g for 5 min. Cell free supernatant ([…]) was collected using a 96-channel PlateMaster (Gilson) and the production of IL-1β was evaluated by HTRF (cisbio). The plates were incubated for 18 h at 4° C. and read using the preset HTRF program (donor emission at 620 nm, acceptor emission at 668 nm) of the SpectraMax i3x spectrophotometer (Molecular Devices, software SoftMax 6). A vehicle only control and a dose titration of CRID3 (100-0.0017 μM) were run concurrently with each experiment.
Procedure 2: […] Production in PMA-Differentiated THP-1 Cells Stimulated with Gramicidin
THP-1 cells were purchased from the American Type Culture Collection and sub-cultured according to instructions from the supplier. Prior to experiments, cells were cultured in complete RPMI 1640 (containing 10% heat inactivated FBS, penicillin (100 units/ml) and streptomycin (100 μg/ml)), and maintained in log phase prior to experimental setup. Prior to the experiment THP-1 were treated with PMA (Phorbol 12-myristate 13-acetate) (20 ng/ml) for 16-18 hours. Compounds were dissolved in dimethyl sulfoxide (DMSO) to generate a 30 mM stock. On the day of the experiment the media was removed and adherent cells were detached with trypsin for 5 minutes. Cells were then harvested, washed with complete RPMI 1640, spun down, resuspended in RPMI 1640 (containing 2% heat inactivated FBS, penicillin (100 units/ml) and streptomycin (100 μg/ml). The cells were plated in a 384-well plate at a density of 50,000 cells/well (final assay volume 50 μl). Compounds were first dissolved in assay medium to obtain a 5× top concentration of 500 μM. 10 step dilutions (1:3) were then undertaken in assay medium containing 1.67% DMSO. 5× compound solutions were added to the culture medium to achieve desired final concentration (e.g. 100, 33, 11, 3.7, 1.2, 0.41, 0.14, 0.046, 0.015, 0.0051, 0.0017 μM). Final DMSO concentration was at 0.37%. Cells were incubated with compounds for 1 hour and then stimulated with gramicidin (5 μM) (Enzo) for 2 hours. Plates were then centrifuged at 340 g for 5 min. Cell free supernatant (40 μL) was collected using a 96-channel PlateMaster (Gilson) and the production of IL-1β was evaluated by HTRF (cisbio). A vehicle only control and a dose titration of CRID3 (100-0.0017 μM) were run concurrently with each experiment. […]

Row | IC50 | SMILES
1 | 1 to 5 µM | COC(=O)CCS(=O)(=O)NC(=O)Cc1c(C(C)C)cc(F)cc1C(C)C [Compound 520, methyl 3-(N-(2-(4-fluoro-2,6-diisopropylphenyl)acetyl)sulfamoyl) propanoate]

Same assay, conditions: Homo sapiens, THP-1, Average IC50, hTHP-1 assay containing 2% fetal bovine serum; Table 10, numeric values

Row | SMILES | IC50
2 | CC(C)c1cc(F)cc(C(C)C)c1CC(=O)NS(=O)(=O)CCCc1ccccc1 [Compound 509] | > 30 µM
3 | CC(C)c1cc(F)cc(C(C)C)c1CC(=O)NS(=O)(=O)Cc1cccc(C(=O)O)c1 [Compound 510] | > 100 µM
4 | CC(C)c1cc(F)cc(C(C)C)c1CC(=O)NS(=O)(=O)Cc1ccccc1 [Compound 511] | > 100 µM
5 | CC(C)c1cc(F)cc(C(C)C)c1CC(=O)NS(=O)(=O)CCc1ccccc1 [Compound 516] | > 30 µM
6 | CC(C)c1cc(F)cc(C(C)C)c1CC(=O)NS(=O)(=O)Cc1ccccc1C(=O)O [Compound 517] | > 100 µM
7 | CC(C)c1cc(F)cc(C(C)C)c1CC(=O)NS(=O)(=O)Cc1ccc(C(=O)O)cc1 [Compound 518] | > 100 µM
8 | CC(C)c1cc(F)cc(C(C)C)c1CC(=O)NS(=O)(=O)Cc1cc(-c2ccccc2)no1 [Compound 519] | > 30 µM
9 | CC(C)c1cc(F)cc(C(C)C)c1CC(=O)NS(=O)(=O)Cc1cccnc1 [Compound 522] | > 100 µM
10 | CC(C)c1cc(F)cc(C(C)C)c1CC(=O)NS(=O)(=O)Cc1cnn(C)c1 [Compound 528] | > 30 µM

The next lines start with the values.

Row | IC50 | SMILES
11 | > 100 µM | CC(C)c1cc(F)cc(C(C)C)c1CC(=O)NS(=O)(=O)CCCC(=O)O [Compound 512]
12 | > 30 µM | COC(=O)CCCS(=O)(=O)NC(=O)Cc1c(C(C)C)cc(F)cc1C(C)C [Compound 513]
13 | > 100 µM | COC(=O)c1cccc(CS(=O)(=O)NC(=O)Cc2c(C(C)C)cc(F)cc2C(C)C)c1 [Compound 514]
14 | > 100 µM | CC(C)c1cc(F)cc(C(C)C)c1CC(=O)NS(=O)(=O)CCC(=O)O [Compound 515]
